# Results published in article PMC5789847, “Bismuth antimicrobial drugs serve as broad-spectrum metallo-β-lactamase inhibitors” (Nature Communications, 2018).
# How the values were obtained:
# [1] = system: NDM-HK (NDM-1^+); assay: microbe, parasite or virus in culture; format: cell-based, E. coli; settings: for MBC of Bi(III) compound/inhibitor alone / MBC of MER in combination with compound at 32 µg mL^-1 / MIC of Bi(III) compound/inhibitor alone / MIC of MER in combination with compound at 32 µg mL^-1 / FICI: NDM-HK; for FICI: MER + compound, 256 µg mL^-1 set as MIC of Bi(III), 128 for Bi(NAC)3
# Experimental: (§1) MIC values were determined by standard broth micro-dilution method (Clinical and Laboratory Standards Institute (CLSI) M100-S20, 2010)[64]. Briefly, bacterial cells were cultured in LB broth overnight at 37 °C at 250 rpm and the OD was measured at 600 nm (OD600). The bacterial density was adjusted to about 1 × 10^6 CFU mL^−1 and checked by CFU counting on agar plates afterwards. Tested antibiotics or Bi(III) compounds were added triplicately into individual wells of flat-bottomed 96-well plates and performed 2-fold serial dilution, followed by addition of prepared bacterial inocula. The plate was then incubated at 37 °C for overnight. […] The MIC was determined as the lowest concentration of a drug that could inhibit the growth of microorganism by both visual reading and OD reading at 600 nm using a microtiter plate reader.
# (§2) Resulting growth (or lack of growth) was examined after overnight culturing and the lowest concentration that inhibits 99.9% of the original culture was taken as MBC.
# (§3) Other procedures were kept strictly the same. […] Synergism was defined when FICI ≤ 0.5, indifference was defined when FICI > 0.5 and < 4, and antagonism was defined when FICI≥4[65]. […] All of the determinations were performed at least in triplicate on different days.
# [2] = system: VIM-BL21 (VIM-2^+); assay: microbe, parasite or virus in culture; format: cell-based, E. coli; settings: VIM-BL21
# Experimental: as §1, §2, §3
Structure (SMILES),MBC of Bi(III) compound/inhibitor alone [1] [µg/mL],MBC of MER in combination with compound at 32 µg mL^-1 [1] [µg/mL],MIC of Bi(III) compound/inhibitor alone [1] [µg/mL],MIC of MER in combination with compound at 32 µg mL^-1 [1] [µg/mL],FICI [1],"MBC ([1]; Escherichia coli, read-out: MBC of Bi(III) compound/inhibitor alone) [µg/mL]","MIC ([1]; Escherichia coli, read-out: MIC of Bi(III) compound/inhibitor alone) [µg/mL]",MBC of Bi(III) compound alone [2] [µg/mL],MBC of MER in combination with compound at 32 µg mL^-1 [2] [µg/mL],MIC of Bi(III) compound alone [2] [µg/mL],MIC of MER in combination with compound at 32 µg mL^-1 [2] [µg/mL],"FICI ([2]; MER + compound, 256 µg mL^-1 set as MIC of Bi(III))"
"CNC(=C[N+](=O)[O-])NCCSCc1ccc(CN(C)C)o1.O=C([O-])CC(O)(CC(=O)[O-])C(=O)[O-].[Bi+3] [RBC, ranitidine bismuth citrate]",> 256,4,> 256,2,0.250,–,–,–,–,–,–,–
"CC(=O)N[C@@H](CS)C(=O)O [NAC, N-acetyl-cysteine]",> 256,8,> 256,8,0.750,–,–,–,–,–,–,–
NC(CCC(=O)NC(C[S][Bi]([S]CC(NC(=O)CCC(N)C(=O)O)C(=O)NCC(=O)O)[S]CC(NC(=O)CCC(N)C(=O)O)C(=O)NCC(=O)O)C(=O)NCC(=O)O)C(=O)O (stereo not shown) [Bi(GSH)3],> 256,4,> 256,2,0.250,–,–,–,–,–,–,–
"C[C@H](CS)C(=O)N1CCC[C@@H]1C(=O)O [CPL, D-captopril]",–,16,–,16,2.000,> 256,> 256,–,–,–,–,–
C[C@H](C[S][Bi+][S]C[C@@H](C)C(=O)N1CCC[C@H]1C(=O)[O-])C(=O)N1CCC[C@H]1C(=O)[O-] [Bi(CPL)2],> 256,0.5,> 256,0.5,0.125,–,–,> 256,1,> 256,0.5,0.078
"O=C(O)CN(CCN(CC(=O)O)CC(=O)O)CC(=O)O [EDTA, ethylenediaminetetraacetate]",> 256,0.5,> 256,0.5,0.031,–,–,–,–,–,–,–
O=C([O-])CN(CCN(CC(=O)[O-])CC(=O)O)CC(=O)[O-].[Bi+3] [Bi(EDTA)],> 256,0.5,> 256,0.5,0.094,–,–,–,–,–,–,–
